Here are results for ten molecules from US4016148A, “Peptide derivatives of phosphonic and phosphinic acids and intermediates therefor” (Hoffmann-La Roche Inc., priority 1975, dated 1977).

In test [1] the test system is E. coli. The test is described as follows: Potentiation of antibiotics by the peptide derivative: MIC and fractional inhibitory concentration index against E. coli in Davis minimal medium. It counts as cell-based. The conditions noted are these: for Fractional Inhibitory Concentration Index: antibiotic in combination with (1R)-1-(L-alanylamino)-ethylphosphonic acid; for Minimum Inhibitory Concentration, Antibiotic + peptide derivative: concentration of the antibiotic: in combination with (1R)-1-(L-alanylamino)-ethylphosphonic acid. An excerpt: The peptide derivatives provided by this invention potentiate the activity of antibiotics (e.g. penicillin and cephalosporin antibiotics and D-cycloserine). Thus, for example the fractional inhibitory concentration indices of (1R)-1-(L-alanylamino)-ethylphosphonic acid in combination with a cephalosporin, with a penicillin antibiotic and with D-cycloserine against E. coli in Davis minimal medium are given in Table 1.

The subject of test [2] is E. coli. Description: Fractional inhibitory concentration indices of peptide derivatives in a 2:1 ratio with D-cycloserine against E. coli in Davis minimal medium. To be noted: peptide derivative in a 2:1 ratio with D-cycloserine. It counts as cell-based. The source says: Again, for example, the fractional inhibitory concentration indices of (1R)-1-(L-alanylamino)-ethylphosphonic acid (Derivative A), (1R)-1-(L-alanyl-L-alanylamino)-ethylphosphonic acid (Derivative B), (1R)-1-(L-alanyl-L-alanyl-L-alanylamino)-ethylphosphonic acid (Derivative C), (1R)-1-(L-alanyl-L-alanyl-L-alanyl-L-alanylamino)-ethylphosphonic acid (Derivative D), (1R)-1-(L-phenylalanylamino)-ethylphosphonic acid (Derivative E), (1R)-1-(L-valylamino)-ethylphosphonic acid (Derivative F) and (1R)-1-(L-leucylamino)-ethylphosphonic acid (Derivative G) in a 2:1 ratio with D-cycloserine against E. coli in Davis minimal medium are given in Table 2.

Molecules are shown by their SMILES. Residues, ends and D or L forms follow the SMILES beside them.

`CC1(C)S[C@@H]2[C@H](NC(=O)[C@H](N)c3ccc(O)cc3)C(=O)N2[C@H]1C(=O)O` [Amoxycillin]: in test [1], the “Minimum Inhibitory Concentration, Antibiotic alone” value turned out to be 4 µg/mL; the “Fractional Inhibitory Concentration Index” value was 0.3; the “Minimum Inhibitory Concentration, Antibiotic + peptide derivative: concentration of the antibiotic” value came to 1 µg/mL.

In the case of `C[C@H](N)C(=O)N[C@@H](C)C(=O)N[C@@H](C)C(=O)N[C@@H](C)C(=O)N[C@@H](C)P(=O)(O)O` [Derivative D, (1R)-1-(L-alanyl-L-alanyl-L-alanyl-L-alanylamino)-ethylphosphonic acid] (HELM PEPTIDE1{A.A.A.A.[C[C@H](N[*:1])P(=O)(O)O]}$$$$V2.0), in test [2], the “Fractional Inhibitory Concentration Index” value is 0.2 and the “Fractional Inhibitory Concentration of D-cycloserine” value was found to be 0.10.

Turning to `CC(C)C[C@H](N)C(=O)N[C@@H](C)P(=O)(O)O` [Derivative G, (1R)-1-(L-leucylamino)-ethylphosphonic acid], in test [2], the “Fractional Inhibitory Concentration Index” value is recorded as 0.27 and the “Fractional Inhibitory Concentration of D-cycloserine” value was 0.12.

Take `C[C@H](NC(=O)[C@@H](N)Cc1ccccc1)P(=O)(O)O` [Derivative E, (1R)-1-(L-phenylalanylamino)-ethylphosphonic acid]: in test [2], the “Fractional Inhibitory Concentration Index” value is reported as 0.48 and the “Fractional Inhibitory Concentration of D-cycloserine” value turned out to be 0.13.

As for `CC(C)[C@H](N)C(=O)N[C@@H](C)P(=O)(O)O` [Derivative F, (1R)-1-(L-valylamino)-ethylphosphonic acid], in test [2], the “Fractional Inhibitory Concentration Index” value is 0.60 and the “Fractional Inhibitory Concentration of D-cycloserine” value turned out to be 0.13.

Take `C[C@H](N)C(=O)N[C@@H](C)C(=O)N[C@@H](C)P(=O)(O)O` [Derivative B, (1R)-1-(L-alanyl-L-alanylamino)-ethylphosphonic acid]: in test [2], the “Fractional Inhibitory Concentration Index” value is 0.2 and the “Fractional Inhibitory Concentration of D-cycloserine” value came out at 0.03.

On to `CC1=C(C(=O)O)N2C(=O)[C@@H](NC(=O)[C@H](N)C3=CCC=CC3)[C@H]2SC1` [Cephradine], for which, in test [1], the “Minimum Inhibitory Concentration, Antibiotic alone” value came out at 16 µg/mL; the “Fractional Inhibitory Concentration Index” value was 0.5; the “Minimum Inhibitory Concentration, Antibiotic + peptide derivative: concentration of the antibiotic” value amounted to 4 µg/mL.

For `C[C@H](N)C(=O)N[C@@H](C)C(=O)N[C@@H](C)C(=O)N[C@@H](C)P(=O)(O)O` [Derivative C, (1R)-1-(L-alanyl-L-alanyl-L-alanylamino)-ethylphosphonic acid], in test [2], the “Fractional Inhibitory Concentration Index” value was 0.1 and the “Fractional Inhibitory Concentration of D-cycloserine” value is 0.05.

With `N[C@@H]1CONC1=O` [D-Cycloserine], in test [1], the “Minimum Inhibitory Concentration, Antibiotic alone” value came out at 64 µg/mL; the “Fractional Inhibitory Concentration Index” value is given as 0.25; the “Minimum Inhibitory Concentration, Antibiotic + peptide derivative: concentration of the antibiotic” value stood at 0.25 µg/mL.

In the case of `C[C@H](N)C(=O)N[C@@H](C)P(=O)(O)O` [Derivative A, (1R)-1-(L-alanylamino)-ethylphosphonic acid], the “Minimum Inhibitory Concentration, Antibiotic + peptide derivative: concentration of the peptide derivative” value in test [1] (in combination with Amoxycillin) worked out at 0.06 µg/mL; in test [1] (in combination with Cephradine) it was 0.25 µg/mL; in test [1] (in combination with D-Cycloserine) it was 0.25 µg/mL. Further, the “Fractional Inhibitory Concentration Index” value in test [2] is given as 0.3. Further, the “Fractional Inhibitory Concentration of D-cycloserine” value in test [2] amounted to 0.06.
